Where two headings read alike, the source gives them in different places. Values belong to the compound of their own block, whether it stands above or below them.
Experiments:
[1] = target: T1, FXR (Rattus norvegicus, UniProt Q62735); assay: cell-based
T1 sequence (Q62735 1-469): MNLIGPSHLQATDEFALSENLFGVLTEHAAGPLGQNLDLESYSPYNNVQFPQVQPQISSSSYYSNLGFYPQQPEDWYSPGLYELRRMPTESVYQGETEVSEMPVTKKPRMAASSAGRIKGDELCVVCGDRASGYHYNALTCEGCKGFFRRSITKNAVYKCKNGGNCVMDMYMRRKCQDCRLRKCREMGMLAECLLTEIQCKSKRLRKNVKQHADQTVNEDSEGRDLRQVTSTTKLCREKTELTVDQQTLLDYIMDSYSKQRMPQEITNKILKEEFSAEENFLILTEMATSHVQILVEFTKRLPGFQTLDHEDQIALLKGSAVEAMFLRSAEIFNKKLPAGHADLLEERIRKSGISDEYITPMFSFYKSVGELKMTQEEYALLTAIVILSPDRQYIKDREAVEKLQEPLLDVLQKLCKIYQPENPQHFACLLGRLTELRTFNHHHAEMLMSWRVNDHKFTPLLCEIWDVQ
T1 sequence (P28700 1-467 partner): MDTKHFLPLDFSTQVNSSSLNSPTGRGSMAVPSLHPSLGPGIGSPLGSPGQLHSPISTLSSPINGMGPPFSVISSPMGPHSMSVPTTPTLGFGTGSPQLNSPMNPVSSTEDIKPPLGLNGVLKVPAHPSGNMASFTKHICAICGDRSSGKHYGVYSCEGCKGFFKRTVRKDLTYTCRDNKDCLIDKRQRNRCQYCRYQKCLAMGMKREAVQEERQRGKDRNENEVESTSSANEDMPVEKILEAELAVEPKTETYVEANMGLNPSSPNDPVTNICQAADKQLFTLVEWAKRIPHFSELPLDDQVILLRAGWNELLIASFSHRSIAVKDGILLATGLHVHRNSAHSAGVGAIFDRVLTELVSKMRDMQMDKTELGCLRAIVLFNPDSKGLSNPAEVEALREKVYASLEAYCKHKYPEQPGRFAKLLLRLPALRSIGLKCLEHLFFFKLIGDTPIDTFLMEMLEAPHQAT
How it was run: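 CHO cells co-transfected with FXR, mouse RXRα and a (EcRE)5-ΔMTV-CAT reporter, with β-galactosidase for normalization. An RXR-dependent CRBPII-CAT reporter was run in parallel. Cells were exposed to candidate juvenoids for 24 h; CAT activity normalized to β-gal and expressed as fold induction over vehicle controls.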

[2] = via 20,22-dihydroxycholesterol intermediate; read-out: apparent Km of metabolism to pregnenolone; cited from earlier work
[3] = test system: Leptinotarsa decemlineata EcR; assay: Leptinotarsa decemlineata EcR/USP, response to agonists (FIG. 7, 8); assay type: cell-based; details: FIG. 8
Procedure: Unless noted otherwise, 100 ng of each EcR and USP plasmid was transfected into 2 ml of cell culture medium. As noted above, a reporter gene carrying five tandem copies of the hsp27 ecdysone response element (Riddihough and Pelham, 1986) is attached to a constitutive thymidine kinase promoter and a luciferase reporter gene (pEcREtk-LUC) and cotransfected into the cells along with vectors expressing EcR, USP, and a constitutively active β-galactosidase gene with lipofection, following manufacturer's protocols. The subsequent measure of luciferase activity reflects ecdysteroid-inducible transcription.
After a 4 hour transfection period, the hormone treatment was applied by diluting stock solutions of muristerone A (murA; Alexis Corporation, San Diego, Calif.), JHI (Scitech), JHIII (Sigma, St Louis, Mo.), and/or 20E (Sigma, St Louis, Mo.) in DMSO. The cells were harvested 24 hours after treatment and the contents of the cells extracted for performing the luciferase and β-galactosidase assays.
Leptinotarsa decemlineata (Ld) USP constructs were made by sub-cloning two different LdUSP inserts into the pVP16 vector (Clontech). This vector encodes a fusion protein of the herpes simplex virus […] viral protein (VP16) activation domain (AD) fused to LdUSP. The LdUSP portion of the fusion gene was isolated by PCR in two different lengths from a plasmid, pBSKS(+)-LdUSP. […]

[4] = target: T2, GGEc (Drosophila melanogaster, UniProt P34021); assay: GGEc chimera (GR amino terminus and DBD, EcR LBD) with RXR in CHO cells; assay type: cell-based
T2 construct: were replaced by EcR LBD amino acids (EcR amino acids 329 to 878); expressed in transfected cells; host or cells: CHO
T2 sequence (P34021 329-878): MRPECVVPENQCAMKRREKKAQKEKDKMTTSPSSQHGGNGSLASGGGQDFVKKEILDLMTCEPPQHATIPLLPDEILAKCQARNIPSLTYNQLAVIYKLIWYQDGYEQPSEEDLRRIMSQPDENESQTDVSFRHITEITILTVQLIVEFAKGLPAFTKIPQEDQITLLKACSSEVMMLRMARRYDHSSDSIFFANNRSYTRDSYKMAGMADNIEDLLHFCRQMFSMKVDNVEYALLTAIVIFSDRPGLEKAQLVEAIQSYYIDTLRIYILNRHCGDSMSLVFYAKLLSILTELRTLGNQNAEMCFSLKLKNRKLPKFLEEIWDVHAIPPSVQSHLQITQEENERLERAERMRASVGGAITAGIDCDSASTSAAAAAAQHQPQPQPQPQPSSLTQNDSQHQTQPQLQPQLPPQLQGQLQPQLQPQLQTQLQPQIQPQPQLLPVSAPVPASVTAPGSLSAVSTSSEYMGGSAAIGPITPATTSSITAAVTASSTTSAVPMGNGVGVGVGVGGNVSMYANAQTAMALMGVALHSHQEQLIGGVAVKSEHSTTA
From the text: For these experiments, the luciferase reporter construct was used. To obviate influences from other transcription factors, results were normalized using a reporter plasmid from which CAT expression is driven by a minimal promoter consisting of dimerized GREs linked upstream of a 13 base pair TATA box DNA element derived from the adenovirus E1B gene.
In this experiment, GGEc and RXR were transfected into CHO cells with either a CAT or a luciferase reporter plasmid containing 1.5 kilobase pairs of the glucocorticoid-inducible mouse mammary tumor virus (MTV) promoter.
In these experiments, CHO cells were transfected with a GGEc-expressing plasmid, a mouse RXRα expression plasmid, and an adenovirus E1b TATA-(GRE)2-CAT reporter plasmid. The GGEc plasmid was eliminated from DNA mixtures added to cells transfected in parallel. CAT activities were measured from lysates of cells from triplicate wells treated with ethanol vehicle, juvocimene (20 μM), muristerone A (0.2 μM), or both.
In these experiments, CHO cells were transfected with DNAs as described above but ubiquinone-2 (10 μM) was substituted for juvocimene.

[5] = target: T3, GGF (Rattus norvegicus, UniProt Q62735); assay: GGF chimera (GR amino terminus and DBD, FXR LBD) in CHO cells; assay type: cell-based; details: data not shown
T3 construct: the GR amino terminus and DBD (appending 23 amino acids downstream from the conserved gly-met) were fused to the FXR LBD; expressed in transfected cells; host or cells: CHO
From the text: A plasmid was constructed that expresses a hybrid protein (GGF) consisting of the human GR amino terminus and DBD linked to the carboxyl terminus of FXR.
In these experiments, CHO cells were transfected with receptor plasmids expressing GGF and mouse RXRα and a luciferase reporter plasmid containing the upstream 1.5 kbp of the MTV promoter.

[6] = test system: insect; details: from Schneiderman and Gilbert, Science 143; cited from earlier work
[7] = target: GR (Homo sapiens, UniProt P04150); assay: GR-based transcriptional assay; assay type: cell-based; details: data not shown
[8] = test system: PPAR; assay: PPAR-based transcriptional assay; assay type: cell-based; details: data not shown
[9] = test system: RAR; assay: RAR-based transcriptional assay; assay type: cell-based; details: data not shown
[10] = target: RXR (Mus musculus, UniProt P28700); assay: RXR-based transcriptional assay; assay type: cell-based; details: data not shown
[11] = test system: tobacco hornworm larvae; details: cited from earlier work

GR, sequence (P04150 whole entry): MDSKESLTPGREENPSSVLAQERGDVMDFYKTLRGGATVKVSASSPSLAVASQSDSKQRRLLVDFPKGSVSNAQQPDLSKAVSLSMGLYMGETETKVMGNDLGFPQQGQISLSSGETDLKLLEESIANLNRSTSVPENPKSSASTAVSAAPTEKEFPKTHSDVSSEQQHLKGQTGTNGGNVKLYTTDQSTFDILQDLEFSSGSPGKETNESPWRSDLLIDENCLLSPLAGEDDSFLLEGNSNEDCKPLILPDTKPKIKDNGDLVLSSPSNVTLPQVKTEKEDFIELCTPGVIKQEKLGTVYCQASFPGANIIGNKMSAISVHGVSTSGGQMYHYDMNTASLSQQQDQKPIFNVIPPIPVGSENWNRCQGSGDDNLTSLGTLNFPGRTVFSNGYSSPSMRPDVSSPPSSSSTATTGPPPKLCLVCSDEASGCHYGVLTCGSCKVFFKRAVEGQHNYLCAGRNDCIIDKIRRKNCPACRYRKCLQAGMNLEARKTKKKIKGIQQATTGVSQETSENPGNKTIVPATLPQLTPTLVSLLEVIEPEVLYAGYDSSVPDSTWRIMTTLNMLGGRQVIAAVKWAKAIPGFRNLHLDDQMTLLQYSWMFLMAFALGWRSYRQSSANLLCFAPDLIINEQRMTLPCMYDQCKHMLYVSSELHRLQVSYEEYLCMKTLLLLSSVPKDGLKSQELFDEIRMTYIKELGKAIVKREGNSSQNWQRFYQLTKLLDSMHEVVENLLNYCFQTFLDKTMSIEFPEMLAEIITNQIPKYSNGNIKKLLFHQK

Structure (SMILES): CC(C)CC[C@@H](O)[C@@H](C)[C@H]1CC[C@H]2[C@@H]3CC=C4C[C@@H](O)CC[C@]4(C)[C@H]3CC[C@]12C [22R-hydroxycholesterol, 22R-Hydroxycholesterol]
- FXR-dependent transcription, induction ([1]; 7.5 μM): 10 fold
- Km [2]: 7 µM

Structure (SMILES): COc1cccc(C(=O)NN(C(=O)c2cc(C)cc(C)c2)C(C)(C)C)c1C [RH2485]
- stimulation of Leptinotarsa EcR, agonists compared [3]: much greater stimulation by RH2485, than by murA or 20E

Structure (SMILES): COC1=C(OC)C(=O)C(C/C=C(\C)CCC=C(C)C)=C(C)C1=O [U2, ubiquinone-2]
- FXR-dependent activity, induction ([1]; dose not stated): 7 fold
- GGEc-dependent activity increase over MUR ([4]; 10 μM ubiquinone-2, muristerone A): 7 times

- FXR-dependent activity, induction ([1]; 1 mM): ineffectiveness
- inhibition at 100 µM ([1]; CHO, read-out: inhibition of FXR activity induced by farnesol): 44%
- inhibition of CDCA-induced GGF-dependent activity [5]: 54%
Structure (SMILES): O=c1ccc2cc(O)c(O)cc2o1 [esculetin]

- EC50 [1]: 15 µM
- FXR-dependent CAT activity, induction ([1]; 50 μM): 9 fold
- GGEc transcription with compound plus MUR relative to MUR alone ([4]; 50 μM compound, 0.2 μM MUR): between two and four times more
Structure (SMILES): C=CC(C)(O)CCC=C(C)CCC=C(C)C (centres unmarked) [nerolidol]
- JH ACTIVITY (units/g) [6]: 8.9 units/g
- FXR ACTIVITY (fold-induction) ([1]; final dose of 50 ∝M, 1 = induction less than 2-fold below cytotoxic doses): 9 fold-induction

Structure (SMILES): COc1ccc2c(c1)OC(C)(C)C=C2 [precocene I]
- reduction of FXR activity of mouse liver microsome extract by ethyl acetate-soluble products ([1]; 100 μM TLC-purified precocene I incubated with CD-1 mouse liver microsomes, NADPH, 37° C., one hour): 70%
- FXR-dependent activity, induction ([1]; dose not stated): 15 fold
- FXR activity of TLC-separated material from precocene I ([1]; eluted from silica, hexane-ethyl acetate (9:1)): did not affect FXR
- EC50 ([1]; read-out: EC50 for FXR-dependent CAT activity): 150 µM
- activity in GR-based transcriptional assay [7]: inactive
- activity in PPAR-based transcriptional assay [8]: inactive
- activity in RAR-based transcriptional assay [9]: inactive
- activity in RXR-based transcriptional assay [10]: inactive

- FXR-dependent activity, induction ([1]; 3 mM): 12 fold
- FXR ACTIVITY (fold-induction) ([1]; dose 3000 μM): 12 fold-induction
- FXR-dependent activity, induction ([1]; theophylline (3 mM) mixed with 8-Br-cAMP (1 mM)): more than 100 fold
Structure (SMILES): Cn1c(=O)c2[nH]cnc2n(C)c1=O [theophylline]
- concentration in tobacco hornworm larvae ([11]; three days after eating tomato leaves sprayed with 1% theophylline): 4 mM
- reduction of leaf consumption ([11]; tomato leaves sprayed with 1% theophylline): by half
